The source of these data is US7807668B2, “Anti-inflammatory compounds” (New Zealand Institute for Crop & Food Research Limited, priority 2004, dated 2010).

Read-outs that look alike come from different tables or passages of the source.

In one data set the test system is rat glioma cells. To be noted: in vitro; cited from earlier work.
The next data set concerns human neutrophils. Nature of the data set: In vitro respiratory burst (superoxide) assay. It is filed as cell-based. To be noted: Neutrophil, concentration required to reduce superoxide production to 50% of control, PMA-triggered respiratory burst, WST-1 dye reduction, compound 30 min before, read-out: Al50 (the source's name). As for the experimental part:
Human neutrophils were isolated from anti-coagulated whole human blood using a Polymorphprep (density 1.13 g/mL, centrifuge 500×g, 40 min). Neutrophils were washed with PBS and plated out at 2×10^6 neutrophils per mL.
Neutrophils were treated with the compound (in DMSO) 30 minutes prior to addition of the detection dye WST-1 (5.5 mM). The respiratory burst was triggered by addition of PMA (200 ng/mL) and dye reduction was monitored (OD 450) for 25 minutes at 37° C.
Respiratory burst activity was calculated as the rate of dye reduction over time and was normalised to untreated cell controls. Anti-inflammatory activity is reported in Table 2 as the concentration required to reduce superoxide production to 50% of control, Al50.

Data set [1] deals with neutrophils in the peritoneal wash. Nature of the data set: Mouse gout model (monosodium urate crystal-induced murine peritonitis). Type of data set: in vivo. As to conditions: Neutrophil, oral, immediately prior to MSU crystals i.p. As to the method:
Mouse Peritionitis was induced by intraperitoneal injection of 1 to 5 mg monosodium urate (MSU) crystals, in […] PBS (0.1M, pH 7.4). Animals were treated with the compound(s) (in 250 μL PBS orally) at the doses indicated immediately prior to administration of the MSU crystals. 4 hours post administration, animals were euthanased by CO2 exposure. The peritoneal cavity was washed with 3 mL of PBS containing 3 mM EDTA and 25 U/mL of heparin. The total cells in the lavage fluid were counted and an appropriate volume retained for H and E staining for differential counting (Getting et al. Molecular Determinants of Monosodium Urate Crystal—induced Murine Peritonitis: A role for Endogenous Mast Cells and a Distinct Requirement for Endothelial-derived Selectins. J. Pharmacology and Experimental Therapeutics 1997, 283: 123-30).
Treatment groups were as follows:
Untreated Control (Naive)
PBS Control (PBS oral+MSU crystals)
Compound(s),(oral)+MSU crystals

Data set [2] has as its system lymphocytic leukemia cells. As to conditions: in vitro; cited from earlier work.
Where [3] appears, read: superoxide activity of neutrophils in peritoneal wash 4 hours post, read-out: % suppression Superoxide production.
Where [4] appears, read: peritoneal wash 4 hours post, total neutrophils per mL, read-out: % suppression Neutrophil infiltration.

For `CC(C)=CCCc1ccc2c(c1)C(=O)C1=C(NCCS1(=O)=O)C2=O` [(A)], the “cytotoxic to rat glioma cells” value in the data set on rat glioma cells is on record as “cytotoxic”.

Turning to `CC(C)=CCCc1ccc2c(c1)C(=O)C1=C(C2=O)S(=O)(=O)CCN1` [(B)], in the data set on rat glioma cells, the “cytotoxic to rat glioma cells” value is on record as “cytotoxic”. Consider `O=C(O)c1ccc2c(n1)C(=O)C1=C(C2=O)S(=O)(=O)CCN1` [Compound 1, 2H-Pyrido[2,3-g][1,4]benzothiazine-5,10-dione, 3,4-dihydr-1,1-dioxo-7-carboxylic acid], for which the IC50 in the data set on human neutrophils is 0.14 µM. On the same count and under the same terms, then `O=C(O)c1ccc2c(n1)C(=O)C1=C(NC=CS1(=O)=O)C2=O` [Compound 2], with 0.07 µM. Consider `COC(=O)c1ccc2c(n1)C(=O)C1=C(C2=O)S(=O)(=O)CCN1` [Compound 3, Methyl-2H-pyrido[2,3-g][1,4]benzothiazine-5,10-dione, 3,4-dihydro-1,1-dioxo-7-carboxylate], for which the inhibition in vivo at 25.6 µmol/kg in data set [1] (setting [3]) was found to be 80%. Further, the IC50 with human neutrophils came out at 1.12 µM.

For the compound `CCCCCCCCOC(=O)c1ccc2c(n1)C(=O)C1=C(C2=O)S(=O)(=O)CCN1` [Compound 4, Octyl-2H-pyrido[2,3-g][1,4]benzothiazine-5,10-dione, 3,4-dihydro-1,1-dioxo-7-carboxylate], the IC50 in the data set with human neutrophils stood at 9.04 µM. Take `N#Cc1ccc2c(n1)C(=O)C1=C(C2=O)S(=O)(=O)CCN1` [Compound 5, 2H-Pyrido[2,3-g][1,4]benzothiazine-5,10-dione, 3,4-dihydro-1,1-dioxo-7-carbonitrile]: the inhibition in vivo at 25.6 µmol/kg in data set [1] (setting [4]) amounted to 25%; in data set [1] (setting [3]) it was 50%. The IC50 with human neutrophils is 1.57 µM.

Turning to `N#Cc1ccc2c(O)c3c(c(O)c2n1)NCCS3(=O)=O` [Compound 6, 2H-Pyrido[2,3-g][1,4]benzothiazine-5,10-dihydroxy, 3,4-dihydro-1,1-dioxo-7-carbonitrile], the IC50 in the data set on human neutrophils came out at 4.85 µM. Consider `Cc1ccc2c(n1)C(=O)C1=C(C2=O)S(=O)(=O)CCN1` [Compound 9, 2H-Pyrido[2,3-g][1,4]benzothiazine-5,10-dione, 3,4-dihydro-7-methyl-1,1-dioxide], for which the results for the inhibition in vivo at 25.6 µmol/kg in data set [1] (setting [4]) and in data set [1] (setting [3]) were 50% and 80%, respectively. Also, the IC50 in the data set on human neutrophils was over 90 µM.

Consider `Cc1ccc2c(n1)C(=O)C1=C(NCCS1(=O)=O)C2=O` [Compound 10, 1H-Pyrido[3,2-g][1,4]benzothiazine-5,10-dione, 2,3-dihydro-7-methyl-1,1-dioxide], for which the inhibition in vivo at 25.6 µmol/kg worked out at 30% in data set [1] (setting [4]) and 40% in data set [1] (setting [3]). Moreover, the IC50 in the data set on human neutrophils was over 90 µM. The matching figures for `O=C1C2=C(NCCS2(=O)=O)C(=O)c2ncccc21` [Compound 11, 2H-Pyrido[2,3-g][1,4]benzothiazine-5,10-dione, 3,4-dihydro-1,1-dioxide]: 30%, 20% and 30 µM. The matching figures for `CN(C)C(=O)c1ccc2c(n1)C(=O)C1=C(C2=O)S(=O)(=O)CCN1` [Compound 12, 2H-Pyrido[2,3-g][1,4]benzothiazine-5,10-dione, 3,4-dihydro-N,N-dimethyl-1,1-dioxo-7-carboxamide]: 65%, 85% and 79 µM.

Consider `CN(C)C(=O)c1ccc2c(n1)C(=O)C1=C(NCCS1(=O)=O)C2=O` [Compound 13, 1H-Pyrido[3,2-g][1,4]benzothiazine-5,10-dione, 2,3-dihydro-N,N-dimethyl-1,1-dioxo-7-carboxamide], for which the IC50 in the data set on human neutrophils was found to be 149 µM. In the case of `O=C(/C=C/c1ccc2c(n1)C(=O)C1=C(C2=O)S(=O)(=O)CCN1)c1ccccc1` [Compound 16, (E)-1-phenyl-3-(2H-Pyrido[2,3-g][1,4]benzothiazine-5,10-dione, 3,4-dihydro-1,1-dioxide)prop-2-en-1-one.], the inhibition in vivo at 25.6 µmol/kg was 30% in data set [1] (setting [4]) and 65% in data set [1] (setting [3]). In the data set with human neutrophils, the IC50 stood at 7.76 µM.

Take `O=C1C2=C(NCCS2(=O)=O)C(=O)c2nc(C3OCCO3)ccc21` [Compound 17]: the IC50 with human neutrophils was over 74 µM. `O=Cc1ccc2c(n1)C(=O)C1=C(C2=O)S(=O)(=O)CCN1` [Compound 18, 2H-Pyrido[2,3-g][1,4]benzothiazine-5,10-dione, 3,4-dihydro1,1-dioxo-7-carbaldehyde]: the inhibition in vivo at 25.6 µmol/kg in data set [1] (setting [3]) came to 40%. The IC50 with human neutrophils amounted to 4.17 µM.

On to `COC(O)c1ccc2c(n1)C(=O)C1=C(C2=O)S(=O)(=O)CCN1` (stereo not drawn) [Compound 19], for which the IC50 in the data set on human neutrophils turned out to be 13 µM. Same read-out and setting: then `O=C(O)c1ccc2c(n1)C(=O)C1=C(C2=O)S(=O)(=O)C=CN1` [Compound 20, 4H-Pyrido[2,3-g][1,4]benzothiazine-5,10-dione-1,1-dioxo-7-carboxylic acid], with 0.09 µM.

For the compound `Cc1ccc2c(n1)C(=O)C1=C(C2=O)S(=O)(=O)C=CN1` [Compound 21, 4H-Pyrido[2,3-g][1,4]benzothiazine-5,10-dione-7-methyl-1,1-dioxide], the values for the inhibition in vivo at 25.6 µmol/kg in data set [1] (setting [4]) and in data set [1] (setting [3]) were 30% and 40%, respectively. For the same compound, in the data set with human neutrophils, the IC50 was determined as 8.93 µM. Take `O=C1C2=C(C(=O)c3ccccc31)S(=O)(=O)CCN2` [Compound 22, 2H-Naphtho[2,3-b]-1,4-thiazine-5,10-dione, 3,4-dihydro-1,1-dioxide]: the inhibition in vivo at 25.6 µmol/kg worked out at 25% in data set [1] (setting [4]) and 80% in data set [1] (setting [3]). For the same compound, in data set [2], the “cytotoxic to lymphocytic leukemia cells” value was “cytotoxic”. The IC50 in the data set on human neutrophils is over 106 µM.
